One experiment has as its system leukocytes in CSF. The experiment is described as follows: Leukocyte and protein influx into CSF of rabbits challenged with pneumococci. It counts as in vivo, rabbit. The conditions noted are these: intravenous, meningitis model. The text has this: This inhibitory activity implies that antibodies to FHA which bind to any of the three Factor X regions would disturb leukocyte recruitment. This is to be distinguished from anti-FHA antibodies that bind to endothelia by recognizing an integrin receptor which is an endothelial cell component (see below). […] This is shown in FIG. 6 where various doses of antibody were given to rabbits and the number of leukocytes recruited into the cerebrospinal fluid in response to pneumonoccal meningitis was determined.
Rabbits were inoculated intracisternally with 10^8 pneumococci and the generation of an inflammatory response in cerebrospinal fluid (CSF) was followed over time by measuring the appearance of leukocytes and protein in CSF. Animals were treated with the antibodies intravenously (2 mg/kg of culture supernatant fluid) at the same time as the intracisternal challenge was given.

Experiment [1] deals with human umbilical vein endothelial cells. In words: Adherence of neutrophils to cultured (TNF-stimulated) endothelial cells. It counts as cell-based. A digest of the protocol:
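Confluent HUVEC monolayers stimulated with 10 ng/ml TNF alpha for 4 h at 37 °C; fluorescein-labelled human neutrophils preincubated 15 min with peptides (0.5 mM in HAP, stock) or HAP buffer, then allowed to adhere 15 min at 37 °C. Adherent cells counted microscopically, expressed as percent of HAP-only control.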

The test system of a further experiment is neutrophils. In words: Transendothelial migration of neutrophils. It counts as cell-based, human. Conditions: native FHA 1 μM. The method, boiled down: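 CFSE-labelled human neutrophils (10^6/ml) pre-incubated 5 min on ice with peptides (0.01 mM) or native FHA (1 μM), then placed on TNF-alpha-stimulated (10 ng/ml, 4 h) HUVEC monolayers on collagen/fibronectin for 1 h at 37 °C. Transmigrated cells measured by fluorescence relative to cell-free wells; inhibition calculated versus M199-only neutrophils set at 100% migration.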

Regarding filamentous hemagglutinin [native FHA], the “leukocyte influx into / inflammation of CSF (in words)” value with leukocytes in CSF was “decreases inflammation”. Moreover, the “reduction of neutrophil binding to HUVEC” value in experiment [1] (25 μg/ml=0.3 μM) was 51±8%. Moreover, in experiment [1] (50 ug/ml, 0.2 uM), the “inhibition of adherence of neutrophils to cultured endothelial cells” value came to 51±7%. Besides, in experiment [1] (concentration dependence), the “maximal inhibition of neutrophil attachment” value is recorded as ~ 50%. Besides, the “% Inhibition of TEM” value is 82±1% in the experiment on neutrophils, 82 ± 1% in the experiment on neutrophils (listed as FHA) and 82±1% in the experiment on neutrophils (listed as Intact FHA).

The values above are taken from patent US6015560A, “Antibody recognizing endothelial cell ligand for leukocyte CR3” (priority 1995, dated 2000).
